From ChEMBL document CHEMBL1781904, “Absolute configuration and selective trypanocidal activity of gaudichaudianic acid enantiomers” (J Nat Prod, 2011)

test system: Trypanosoma cruzi; assay: Trypanocidal activity against Trypanosoma cruzi Y epimastigotes after 72 hrs by MTT assay; format: functional, organism-based; conditions: not given

Row | Compound | IC50
1 | CC(C)=CCCC1(C)C=Cc2cc(C(=O)O)cc(CC=C(C)C)c2O1 (racemic; form 2) [GAUDICHAUDIANIC ACID] | 197 µM
2 | CC(C)=CCCC1(C)C=Cc2cc(C(=O)O)cc(CC=C(C)C)c2O1 (stereo in doubt; 1) [GAUDICHAUDIANIC ACID] | 55.8 µM
3 | CC(C)=CCCC1(C)C=Cc2cc(C(=O)O)cc(CC=C(C)C)c2O1 (racemic; form 1) [GAUDICHAUDIANIC ACID] | 111 µM

same assay, conditions: Trypanosoma cruzi, Y, 72 h

Row | Compound | IC50
4 | CC(C)=CCC[C@@]1(C)C=Cc2cc(C(=O)O)cc(CC=C(C)C)c2O1 | 176 µM
5 | O=C(Cn1ccnc1[N+](=O)[O-])NCc1ccccc1 [BENZNIDAZOLE] | 37.3 µM
6 | CC(C)=CCC[C@]1(C)C=Cc2cc(C(=O)O)cc(CC=C(C)C)c2O1 | 224 µM
